Here are results for 16 compounds from ChEMBL document CHEMBL1158552, “Transkarbams as transdermal permeation enhancers: effects of ester position and ammonium carbamate formation” (Bioorg Med Chem Lett, 2010).

Series [1] is described as follows: Potentiation of theophylline transdermal permeation in pig ear skin at pH 7 by Franz diffusion cells method. Format: ADME, Sus scrofa. Conditions: artificial membrane; call rule not given here.
The nature of series [2]: Potentiation of theophylline transdermal permeation in pig ear skin by Franz diffusion cells method. Format: ADME, cell-based, Sus scrofa. The conditions noted are these: artificial membrane.

The structures appear in SMILES notation.

For the compound `CCCCCCCCCCCCCCCOC(=O)CCN.Cl`, in series [1], the outcome was Active.

In the case of `CCCCCCCCCCOC(=O)CCCCCCCN`, the Activity entry in series [1] is recorded as “Not Active”; in series [2], “Active”. The corresponding values for `CCCCCCCCOC(=O)CCCCCCCCCN` are “Not Active” and “Active”. As for `CCCCCCOC(=O)CCCCCCCCCCCN.Cl`, the result in series [1] was Active.

As for `CCCCCCCCCCCCCCCOC(=O)CCN`, the Activity result in series [1] is “Not Active”; in series [2], “Active”. For the compound `CCCCCCCCCCCCCCOC(=O)CCCN`, the Activity result was “Not Active” in series [1] and “Active” in series [2].

Regarding `CCCCCCCCCCCCCCOC(=O)CCCN.Cl`, the outcome in series [1] was Active. As for `CCCCCCCCCCCCCOC(=O)CCCCN.Cl`, the result in series [1] was Active. Regarding `CCCCCCCCCCCCOC(=O)CCCCCN.Cl`, the outcome in series [1] and in series [2] was Active. For `CCCCCCCCCCCOC(=O)CCCCCCN.Cl`, the result in series [1] and in series [2] was Active. With `CCCCCCCCCCOC(=O)CCCCCCCN.Cl`, the result in series [1] and in series [2] was Active. `CCCCCCCCOC(=O)CCCCCCCCCN.Cl`: the outcome in series [1] was Active. Regarding `CCCCCCOC(=O)CCCCCCCCCCCN`, the Activity entry is listed as “Not Active” in series [1] and “Active” in series [2]. The corresponding values for `CCCCCCCCCCCCCOC(=O)CCCCN` are “Not Active” and “Active”.

With `CCCCCCCCCCCCOC(=O)CCCCCN`, the figures for the Activity entry in series [1] and in series [2] were “Not Active” and “Active”, respectively. `CCCCCCCCCCCOC(=O)CCCCCCN`: the results for the Activity result in series [1] and in series [2] were “Not Active” and “Active”, respectively.
